Active and inactive are the calls of the source.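 How the source made its calls: active means IC50 at or below 10 µM; inactive means IC50 above 10 µM.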
Each compound was assayed against Orexin/Hypocretin receptor type 1 (Homo sapiens) (UniProt O43613) (assay: OX1R antagonist potency, calcium flux, late-stage follow-up, fluorescence, Fluo-8, CHO cells, powder samples (AID 624409)). Conditions: Fluo-8 calcium fluorescence, orexin A.
Chain of Orexin/Hypocretin receptor type 1 (Homo sapiens) (O43613 whole entry, looked up): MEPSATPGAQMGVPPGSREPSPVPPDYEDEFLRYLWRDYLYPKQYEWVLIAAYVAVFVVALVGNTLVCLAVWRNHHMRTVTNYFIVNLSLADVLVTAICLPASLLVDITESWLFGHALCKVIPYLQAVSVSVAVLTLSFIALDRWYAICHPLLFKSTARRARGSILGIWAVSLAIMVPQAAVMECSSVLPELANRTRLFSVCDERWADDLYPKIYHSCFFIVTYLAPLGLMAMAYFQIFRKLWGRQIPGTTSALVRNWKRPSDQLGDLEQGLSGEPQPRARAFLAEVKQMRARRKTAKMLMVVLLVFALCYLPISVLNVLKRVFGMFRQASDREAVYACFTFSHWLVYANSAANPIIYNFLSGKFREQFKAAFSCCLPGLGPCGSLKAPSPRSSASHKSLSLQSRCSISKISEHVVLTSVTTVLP
O=C(CSc1ccc(-c2ccccc2)nn1)c1cccs1 showed an IC50 of 7.92 µM.
With Cc1c(NS(=O)(=O)c2cccc(C(=O)OCC(=O)N(C)C3CCCCC3)c2)c(=O)n(-c2ccccc2)n1C the IC50 was “inactive”.
Compound Cc1cccc(C=NNC(=O)c2cc3c(s2)-c2ccccc2CC3)c1 has an IC50 of 2.67 µM.
COc1cccc(/C=C2/Oc3ccccc3N(CC(=O)NCC3CCCO3)C2=O)c1 (stereo unspecified) was tested, and the IC50 was 3.8 µM.
With CCc1cc(C(=O)OCC(=O)N2CCC(c3ccccc3)=N2)sc1C the IC50 was “inactive”.
CCOc1ccccc1C(=O)Nc1ccc2nc3n(c(=O)c2c1)CCCCC3 was tested, and the IC50 was “inactive”.
For Cc1ccccc1NC(=O)C1CCCN1S(=O)(=O)c1ccccc1C(F)(F)F (stereo unspecified), the IC50 was > 19.9 µM (inactive).
For Cc1cccc(NC(=O)[C@@H]2CCCN2S(=O)(=O)c2ccc(Cl)cc2)c1, the IC50 was > 19.9 µM (inactive).
In the case of COCCCNC(=O)CCC(=O)NNc1nc2ccccc2c2nc(-c3ccccc3)nn12, the IC50 is reported as “inactive”.
O=c1cc(CN2CC(O)Cc3ccc4ccccc4c32)nc2sccn12 (stereo unspecified) was tested, and the IC50 was > 19.9 µM (inactive).
CCN(CC)c1ccc(NC(=O)Cn2c(C(C)NC(=O)c3ccccc3)nc3ccccc32)cc1 (stereo unspecified) was tested, and the IC50 was > 59.6 µM (inactive).
For Cc1noc(C)c1COc1ccc(C(=O)OCC(=O)N2CC(=O)Nc3ccccc32)cc1, the IC50 was > 19.9 µM (inactive).
In the case of COc1cc(OC)c(-c2nc3ccccc3s2)cc1OC, the IC50 is reported as “inactive”.
For Fc1cccc(Nc2nc3ccccc3n3cnnc23)c1, the IC50 was > 59.6 µM (inactive).
In the case of CSc1cccc(N2CC(C(=O)NCCN3C(=O)S/C(=C\c4cccnc4)C3=O)CC2=O)c1 (stereo unspecified), the IC50 is reported as > 19.9 µM (inactive).
With COc1ccc(OC)c(S(=O)(=O)NCC(c2ccco2)N2CCc3ccccc32)c1 (stereo unspecified) the IC50 was 7.12 µM.
With Cc1ccc(-c2csc3nnc(SCC(=O)Nc4nsc(-c5ccccc5)n4)n23)cc1 the IC50 was “inactive”.
Compound Cc1cc(Cl)ccc1OCCCC(=O)NCCN1C(=O)S/C(=C\c2cccnc2)C1=O has an IC50 of 1.38 µM.
In the case of CCc1cc2c(SCC(=O)N(CC)c3c(N)n(Cc4ccccc4)c(=O)[nH]c3=O)ncnc2s1, the IC50 is reported as > 59.6 µM (inactive).
Compound CC(=C/c1ccccc1)/C=C1/SC(N2CCOCC2)=NC1=O has an IC50 of 9.14 µM.
For CN(N=Cc1cc([N+](=O)[O-])ccc1O)c1ccccc1, the IC50 was > 59.6 µM (inactive).
In the case of CCSC1=C(C#N)C(c2ccccc2Cl)C(C(=O)c2cccs2)C(O)(C(F)(F)F)N1 (stereo unspecified), the IC50 is reported as 4.97 µM.
CCOC(=O)N1CCN(C(=O)CSc2ccc(-c3ccccc3)nn2)CC1 was tested, and the IC50 was > 59.6 µM (inactive).
For CCn1c(SCC(=O)Nc2ccc3c(c2)c2ccccc2n3CC)nnc1-c1cnccn1, the IC50 was “inactive”.
With O=C(CN1C(=O)/C(=C\c2cccc(Br)c2)Oc2ccccc21)NCC1CCCO1 (stereo unspecified) the IC50 was 5.01 µM.
Work on CSc1cccc(NC(=O)C2CCCN2S(=O)(=O)c2ccc(Br)s2)c1 (stereo unspecified) yielded an IC50 of 4.67 µM.

Source: PubChem BioAssay AID624409 (The Scripps Research Institute Molecular Screening Center, 2012)
